Reference: patent US11591336B2 (Relay Therapeutics, Inc., priority 2017, dated 2023)
Counter-ions that a name gives are not always drawn.

Molecular target: SHP2 (Homo sapiens (Human), UniProt Q06124)
Experiment: SHP2 Allosteric Inhibition Assay (DiFMUP prompt fluorescence)
Assay type: biochemical
Details: 0.25 nM SHP2 activated with 0.5 μM peptide IRS1_pY1172(dPEG8)pY1222; substrate DiFMUP 100 μM; 25° C.

Chain of SHP2 (Q06124 whole entry): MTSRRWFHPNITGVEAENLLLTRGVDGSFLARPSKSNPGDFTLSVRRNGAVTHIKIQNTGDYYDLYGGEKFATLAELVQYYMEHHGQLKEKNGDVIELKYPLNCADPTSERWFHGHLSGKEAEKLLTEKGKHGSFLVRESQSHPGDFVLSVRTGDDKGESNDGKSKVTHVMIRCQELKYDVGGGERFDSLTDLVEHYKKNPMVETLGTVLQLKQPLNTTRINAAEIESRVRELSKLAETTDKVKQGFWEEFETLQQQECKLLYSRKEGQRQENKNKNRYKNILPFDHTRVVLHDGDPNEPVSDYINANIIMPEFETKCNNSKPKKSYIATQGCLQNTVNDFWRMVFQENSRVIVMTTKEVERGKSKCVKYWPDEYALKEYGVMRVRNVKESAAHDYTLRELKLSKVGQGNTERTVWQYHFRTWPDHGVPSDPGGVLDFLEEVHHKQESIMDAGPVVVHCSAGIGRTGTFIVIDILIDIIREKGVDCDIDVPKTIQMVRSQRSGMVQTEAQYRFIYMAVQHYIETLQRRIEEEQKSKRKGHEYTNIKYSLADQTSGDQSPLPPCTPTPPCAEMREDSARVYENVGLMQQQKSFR

Compound | IC50 [nM]
CC1(N)CCN(c2cnc3c(N4CCCc5c(-c6nc(C(=O)O)cs6)cccc54)n[nH]c3n2)CC1 [Compound 71, 2-(1-(6-(4-amino-4-methylpiperidin-1-yl)-1H-pyrazolo[3,4-b]pyrazin-3-yl)-1,2,3,4-tetrahydroquinolin-5-yl)thiazole-4-carboxylic acid] | < 1000
CC1CN(c2n[nH]c3nc(N4CCC(C)(CN)CC4)cnc23)c2ccccc21 (centres unmarked) [Compound 123] | < 1000
CO[C@H]1C[C@H](N2CCN(c3n[nH]c4nc(N5CCC6(CC5)CO[C@@H](C)[C@H]6N)cnc34)c3ccc(C#N)cc32)C1 [Compound 470] | < 1000
C[C@@H]1CCN(c2n[nH]c3nc(N4CCC(C)(CN)CC4)cnc23)c2ccc(-c3nccs3)nc21 (single isomer, unassigned) [Compound 196, hydrochloride] | < 1000
Cn1ccc(Sc2n[nH]c3nc(N4CCC(C)(N)CC4)cnc23)c(Cl)c1=O [Compound 484, 4-((6-(4-amino-4-methylpiperidin-1-yl)-1H-pyrazolo[3,4-b]pyrazin-3-yl)thio)-3-chloro-1-methylpyridin-2(1H)-one] | < 1000
N[C@@H]1CCC[C@@]12CCN(c1cnc3c(N4CCCc5ncccc54)n[nH]c3n1)C2 (relative stereo) [Compound 206, rel-(5S,6R)-2-(3-(3,4-dihydro-1,5-naphthyridin-1(2H)-yl)-1H-pyrazolo[3,4-b]pyrazin-6-yl)-2-azaspiro[4.4]nonan-6-amine] | 1000 to 10000
C[C@@H]1CCN(c2n[nH]c3nc(N4CCC(C)(CN)CC4)cnc23)c2ccc(C#N)cc21 (single isomer, unassigned) [Compound 115] | < 1000
C[C@@H]1OCC2(CCN(c3cnc4c(N5CCCc6c(N=S(C)(C)=O)cccc65)n[nH]c4n3)CC2)[C@@H]1N [Compound 418] | < 1000
CC(C)N1CCN(c2n[nH]c3nc(N4CCC5(CC4)CO[C@@H](C)[C@H]5N)cnc23)c2cccnc21 [Compound 387] | < 1000
Cn1ccc(Sc2n[nH]c3nc(N4CCC(C)(CN)CC4)cnc23)cc1=O [Compound 511, 4-((6-(4-(aminomethyl)-4-methylpiperidin-1-yl)-1H-pyrazolo[3,4-b]pyrazin-3-yl)thio)-1-methylpyridin-2(1H)-one] | < 1000
C[C@@H]1OCC2(CCN(c3cnc4c(N5CC[C@H](C)c6c5ccc(C#N)c6F)n[nH]c4n3)CC2)[C@@H]1N (single isomer, unassigned) [Compound 230] | < 1000
CC1(N)CCN(c2cnc3c(Sc4ccccc4C#N)n[nH]c3n2)CC1 [Compound 10, 2-((6-(4-amino-4-methylpiperidin-1-yl)-1H-pyrazolo[3,4-b]pyrazin-3-yl)thio)benzonitrile] | < 1000
CCC(=O)N1CCN(c2n[nH]c3nc(N4CCC5(CC4)CO[C@@H](C)[C@H]5N)cnc23)c2ccccc21 [Compound 360] | < 1000
C[C@@H]1OCC2(CCN(c3cnc4c(N5CC[C@H](C)c6nc(-c7nnc[nH]7)ccc65)n[nH]c4n3)CC2)[C@@H]1N [Compound 454, (3S,4S)-3-methyl-8-{3-[(4S)-4-methyl-6-(4H-1,2,4-triazol-3-yl)-1,2,3,4-tetrahydro-1,5-naphthyridin-1-yl]-1H-pyrazolo[3,4-b]pyrazin-6-yl}-2-oxa-8-azaspiro[4.5]decan-4-amine] | < 1000
C[C@@H]1OCC2(CCN(c3cnc4c(N5CCN(CC(=O)N(C)C)c6cc(C#N)ccc65)n[nH]c4n3)CC2)[C@@H]1N [Compound 453, 2-(4-{6-[(3S,4S)-4-amino-3-methyl-2-oxa-8-azaspiro[4.5]decan-8-yl]-1H-pyrazolo[3,4-b]pyrazin-3-yl}-7-cyano-1,2,3,4-tetrahydroquinoxalin-1-yl)-N,N-dimethylacetamide] | < 1000
CNCCN(C)c1n[nH]c2nc(N3CCC(C)(CN)CC3)cnc12 [Compound 474] | ≥ 10000
C[C@@H]1OCC2(CCN(c3cnc4c(N5CCN(C)c6nc(-c7cnn(C)c7)ccc65)n[nH]c4n3)CC2)[C@@H]1N [Compound 310, (3S,4S)-3-methyl-8-(3-(4-methyl-6-(1-methyl-1H-pyrazol-4-yl)-3,4-dihydropyrido[2,3-b]pyrazin-1(2H)-yl)-1H-pyrazolo[3,4-b]pyrazin-6-yl)-2-oxa-8-azaspiro[4.5]decan-4-amine] | < 1000
CC1(CN)CCN(c2cnc3c(N4CCCc5cc(C(N)=O)ccc54)n[nH]c3n2)CC1 [Compound 58, 1-(6-(4-(aminomethyl)-4-methylpiperidin-1-yl)-1H-pyrazolo[3,4-b]pyrazin-3-yl)-1,2,3,4-tetrahydroquinoline-6-carboxamide] | < 1000
CC(=O)N1CCN(c2n[nH]c3nc(N4CCC(C)(N)CC4)cnc23)c2ccccc21 [Compound 56] | < 1000
C[C@@H]1OCC2(CCN(c3cnc4c(N5CCCc6c(CO)cccc65)n[nH]c4n3)CC2)[C@@H]1N [Compound 431, (1-{6-[(3S,4S)-4-amino-3-methyl-2-oxa-8-azaspiro[4.5]decan-8-yl]-1H-pyrazolo[3,4-b]pyrazin-3-yl}-1,2,3,4-tetrahydroquinolin-5-yl)methanol] | < 1000
C[C@@H]1OCC2(CCN(c3cnc4c(N5CCCc6c5cccc6[S@](C)(=N)=O)n[nH]c4n3)CC2)[C@@H]1N [Compound 422] | < 1000
CC1(CN)CCN(c2cnc3c(N4CCC(C(F)F)c5cc(C#N)ccc54)n[nH]c3n2)CC1 (centres unmarked) [Compound 181, 1-{6-[4-(aminomethyl)-4-methylpiperidin-1-yl]-1H-pyrazolo[3,4-b]pyrazin-3-yl}-4-(difluoromethyl)-1,2,3,4-tetrahydroquinoline-6-carbonitrile] | < 1000

Compound | IC50 [nM]
C[C@@H]1OCC2(CCN(c3cnc4c(N5CCS(=O)(=O)c6ccccc65)n[nH]c4n3)CC2)[C@@H]1N [Compound 341] | < 1000
C[C@@H]1CCc2ccccc2N1c1n[nH]c2nc(N3CCC(C)(N)CC3)cnc12 [Compound 36] | 1000 to 10000
C[C@@H]1CCN(c2n[nH]c3nc(N4CCC(C)(CN)CC4)cnc23)c2ccccc21 [Compound 49, (R)-(4-methyl-1-(3-(4-methyl-3,4-dihydroquinolin-1(2H)-yl)-1H-pyrazolo[3,4-b]pyrazin-6-yl)piperidin-4-yl)methanamine] | < 1000
C[C@@H]1OCC2(CCN(c3cnc4c(N5CCCc6nc(-c7cccnn7)ccc65)n[nH]c4n3)CC2)[C@@H]1N [Compound 348] | < 1000
C[C@@H]1OCC2(CCN(c3cnc4c(N5CCCc6c5cccc6S(C)(=O)=O)n[nH]c4n3)CC2)[C@@H]1N [Compound 281, (3S,4S)-8-[3-(5-methanesulfonyl-1,2,3,4-tetrahydroquinolin-1-yl)-1H-pyrazolo[3,4-b]pyrazin-6-yl]-3-methyl-2-oxa-8-azaspiro[4.5]decan-4-amine] | < 1000
CC1(N)CCN(c2cnc3c(N4CCCn5c4cccc5=O)n[nH]c3n2)CC1 [Compound 43] | ≥ 10000
NC1=NCCC12CCN(c1cnc3c(N4CCCc5ncccc54)n[nH]c3n1)CC2 [Compound 202, 8-(3-(3,4-dihydro-1,5-naphthyridin-1(2H)-yl)-1H-pyrazolo[3,4-b]pyrazin-6-yl)-2,8-diazaspiro[4.5]dec-1-en-1-amine dihydrochloride] | < 1000
CC1(CN)CCN(c2cnc3c(Cc4ccccc4)n[nH]c3n2)CC1 [Compound 15, (1-(3-benzyl-1H-pyrazolo[3,4-b]pyrazin-6-yl)-4-methylpiperidin-4-yl)methanamine] | 1000 to 10000
CC1(CN)CCN(c2cnc3c(Sc4ccccc4)n[nH]c3n2)CC1 [Compound 7, (4-methyl-1-(3-(phenylthio)-1H-pyrazolo[3,4-b]pyrazin-6-yl)piperidin-4-yl)methanamine] | < 1000
Cc1coc(-c2ccc3c(n2)CCCN3c2n[nH]c3nc(N4CCC5(CC4)CO[C@@H](C)[C@H]5N)cnc23)n1 [Compound 328] | < 1000
CCC1(C)CCN(c2cnc3c(N4CCCc5ncccc54)n[nH]c3n2)CC1 [Compound 153] | ≥ 10000
CC1(CN)CCN(c2cnc3c(Sc4ccn5nccc5c4)n[nH]c3n2)CC1 [Compound 513, (4-methyl-1-(3-(pyrazolo[1,5-a]pyridin-5-ylthio)-1H-pyrazolo[3,4-b]pyrazin-6-yl)piperidin-4-yl)methanamine] | < 1000
CC1(N)CCN(c2cnc3c(N4CCCn5nccc54)n[nH]c3n2)CC1 [Compound 22] | < 1000
C[C@@H]1OCC2(CCN(c3cnc4c(N5CC(=O)N(C)c6cc(C#N)ccc65)n[nH]c4n3)CC2)[C@@H]1N [Compound 275, 1-{6-[(3S,4S)-4-amino-3-methyl-2-oxa-8-azaspiro[4.5]decan-8-yl]-1H-pyrazolo[3,4-b]pyrazin-3-yl}-4-methyl-3-oxo-1,2,3,4-tetrahydroquinoxaline-6-carbonitrile] | < 1000
C#Cc1ccc2c(n1)CCCN2c1n[nH]c2nc(N3CCC4(CC3)CO[C@@H](C)[C@H]4N)cnc12 [Compound 410] | < 1000
C[C@@H]1OCC2(CCN(c3cnc4c(N5CCCc6c([C@@H]7CCOC7)cccc65)n[nH]c4n3)CC2)[C@@H]1N [Compound 401] | < 1000
CC1(CN)CCN(c2cnc3c(N4CCCc5c(-c6ccccc6)cccc54)n[nH]c3n2)CC1 [Compound 65] | < 1000
CC1(N)CCN(c2cnc3c(N4CCCC(c5ccccc5)C4)n[nH]c3n2)CC1 (centres unmarked) [Compound 47] | 1000 to 10000
C[C@@H]1OCC2(CCN(c3cnc4c(N5CCCc6nc(CC#N)ccc65)n[nH]c4n3)CC2)[C@@H]1N [Compound 352] | < 1000
N[C@H]1CCC12CCN(c1cnc3c(N4CCCc5ncccc54)n[nH]c3n1)CC2 [Compound 340, (1S)-7-[3-(1,2,3,4-tetrahydro-1,5-naphthyridin-1-yl)-1H-pyrazolo[3,4-b]pyrazin-6-yl]-7-azaspiro[3.5]nonan-1-amine] | < 1000
COc1ccc2c(n1)CCCN2c1n[nH]c2nc(N3CCC4(CC3)CO[C@@H](C)[C@H]4N)cnc12 [Compound 315] | < 1000
C[C@@H]1OCC2(CCN(c3cnc4c(N5CCN([C@H]6C[C@](C)(O)C6)c6cc(C#N)ccc65)n[nH]c4n3)CC2)[C@@H]1N [Compound 527] | < 1000
